Reference: PMC5880951, “Pentocin MQ1: A Novel, Broad-Spectrum, Pore-Forming Bacteriocin From Lactobacillus pentosus CS2 With Quorum Sensing Regulatory Mechanism and Biopreservative Potential” (Frontiers in Microbiology, 2018)

What was measured:
M. luteus = details: within 30 min; ref Barbour et al., 2016; cited from earlier work
Excerpt: The two main modes of action of LAB bacteriocins against Gram-positive bacteria are pore formation and inhibition of cell wall synthesis (Cotter et al., [2013]). […] This implies that pore formation is a more rapid killing mechanism.

[1] = tested on: Micrococcus luteus ATCC 10240; test: Membrane permeabilization (pore formation), SYTOX green; format: cell-based; details: 5 μM SYTOX green, pentocin MQ1 at 5 X MIC, nisin as positive control, Real-Time PCR read-out, triplicates
Description: Pore formation assay was done to understand the mechanism of action of pentocinMQ1. M. luteus was grown in Mueller-Hinton broth until OD600nm = 0.45 after which 5 μM SYTOX green dye (Invitrogen, USA) was added. Ninety microliters of stained bacteria was added to MicroAmp Fast Optical 96-well reaction plate (Applied Biosystems, Life Technologies, USA). After a stable line base was attained, 10 μl of pentocin MQ1 (5 X MIC) was added to the stained bacteria. Sodium phosphate buffer (5 mM) and nisin (Sigma-Aldrich, USA) were added to stained bacteria in different wells to serve as negative and positive controls, respectively. Experiments were done in triplicates. Fluorescence as a result of binding of SYTOX green to leaked intracellular DNA was monitored using Real-Time PCR (Applied Biosystems, USA).

Micrococcus spp. = details: ref Mota-Meira et al., 2000; cited from earlier work
Description: (§1) Pentocin MQ1 was strongly inhibitory against L. monocytogenes NCTC 10890, M. luteus ATCC 10240, and B. cereus ATCC14579 at micromolar concentrations. High activity at low concentration is a desirable property of natural biopreservatives (Bali et al., [2016]). MIC-values for nisin A against Micrococcus spp. and Bacillus spp. (Mota-Meira et al., [2000]) are lower than that of pentocin MQ1. […] After 120 min ...

Bacillus spp. = details: ref Mota-Meira et al., 2000; cited from earlier work
Description: as §1

For nisin, the increase in fluorescence (M. luteus) is listed as “caused an increase in fluorescence intensity” and the “fluorescence intensity (SYTOX green binding to leaked intracellular DNA)” value [1] is listed as “higher fluorescence intensity”.

In the case of nisin A, the “MIC compared with pentocin MQ1” value (Micrococcus spp.) is given as “lower” and the “MIC compared with pentocin MQ1” value (Bacillus spp.) is given as “lower”.
